How the values were obtained:
[1] = system: Lettuce seedlings (Green leaf lettuce, Sakata Seed Corporation); experiment: Example 6: spray-application to leaf surface with different amounts of fertilizer elements, lettuce seedling-raising test; format: in vivo
Protocol: (§1) Lettuce seedlings (Green leaf lettuce, Sakata Seed Corporation) were raised under the conditions described below.
(§2) Place: Inside a plant incubator
(§3) Soil: Black soil (40 ml/pot)
(§4) Light: 115 μmol m^−2 s^−1 (10,000 lux) (light period: 16 hours; dark period: 8 hours)
Number of tested plants (n): 4
(§5) Water supply: During the seedling-raising test, water was adequately supplied so as to prevent the soil in the pot from being dehydrated (about 20 ml/week).
Test groups: […] test groups: i.e., Control group, Comparative group 7, Formulation group 1 (15 parts of the fertilizer), Formulation group 2 (30 parts of the fertilizer), Formulation group 3 (100 parts of the fertilizer), Formulation group 4 (150 parts of the fertilizer), Formulation group 5 (200 parts of the fertilizer), and Formulation group 6 (400 parts of the fertilizer), were provided as shown in Table 11 below.
(§6) Control group was tested through application of fertilizer elements (nitrogen, phosphorus, and potassium) only to soil without the application of GSSG.
(§7) In the case of Control group, soil was prepared to contain nitrogen, phosphorus, and potassium in an amount of 40 mg each (120 mg in total per pot) in terms of N, P2O5, and K2O, respectively, at the time of sowing. Specifically, 40 ml of soil, 156 mg of ammonium sulfate, 66 mg of monobasic ammonium phosphate, and 80 mg of potassium sulfate were weighed and introduced into a container, these elements were mixed to prepare a homogeneous composition, and the resultant was introduced into a pot. Ammonium sulfate used in the experiment contained 21% of nitrogen (in terms of N), monobasic ammonium phosphate contained 11% of nitrogen (in terms of N) and 61% of phosphorus (in terms of P2O5), and potassium sulfate contained 50% of potassium (in terms of K2O) (based on the indication of each product).
(§8) Lettuce seeds were sowed in soil in the pot and the seedling-raising test was then initiated.
Comparative group 7 was tested through application of GSSG to the leaf surface and fertilizer elements (nitrogen, phosphorus, and potassium) to soil. […]

[2] = system: Lettuce seedlings (Green leaf lettuce, Sakata Seed Corporation); experiment: Example 2: effects of application on leaf surface, lettuce seedling-raising test; format: in vivo; settings: for Weight (fresh weight, average, of the terrestrial parts): 2 weeks, n=3; for Growth rate (fresh weight of terrestrial parts relative to Control group): Control group = 100
Protocol: as §1, §2, §3, §4
Number of tested plants (n): 3
as §5
Test groups: Four test groups: i.e., Control group, Comparative group 1, Comparative group 2, and Invention group, were provided as shown in Table 3 below.
as §6
as §7, with “to comprise” for “to contain”, “these components” for “these elements”, “N), and” for “N),”
as §8
Comparative group 1 was tested through application of GSSG and a fertilizer elements (nitrogen, phosphorus, and potassium) only to soil.
The method for application of fertilizer elements to soil and the amount of application are as described above with reference to Control group.
GSSG was applied to soil with the addition of an aqueous solution of GSSG to soil. At the outset, an aqueous solution of GSSG (in terms of free GSSG, the same applies hereinbelow) dissolved at 300 ppm in water was prepared. Subsequently, the aqueous solution of GSSG was applied in an amount of 4 ml each (12 ml in total) three separate times at intervals of 3 days from 6 days after seedling raising was initiated. Thus, 3.6 mg of GSSG (in terms of free GSSG) was applied during the test period per pot. […]
In Invention group, soil was prepared to contain the fertilizer elements (i.e., 36 mg each of nitrogen, phosphorus, and potassium in terms of N, P2O5, and K2O, respectively, 108 mg in total per pot) at the time of sowing. Specifically, 40 ml of soil and, as fertilizer elements, 140.4 mg of ammonium sulfate, 59.4 mg of ammonium phosphate, and 72 mg of potassium sulfate, were weighed and introduced into a container, these components were mixed to prepare a homogeneous composition, and the resultant was then introduced into a pot.
GSSG was spray-applied to the leaf surface as described below. The finely-powdered water-soluble preparation (1) of the formulation A as described in Example 1 (33.8 mg) was dissolved in 12 ml of water to prepare an aqueous solution containing GSSG and fertilizer elements. […]

## Oxidized glutathione [GSSG]
[1]; 2 weeks, n=4, 3.5 mg GSSG with 0-400 parts of fertilizer per 100 parts GSSG sprayed to leaf surface three times, 12 ml in total per pot, rest of fertilizer to soil
  Weight (fresh weight, average, of the terrestrial parts): 88 mg
[1]; Comparative group 7 compared with Control group
  Plant growth promotion versus Control group: plant growth is promoted
[1]; Control group = 100, 3.5 mg GSSG with 0-400 parts of fertilizer per 100 parts GSSG sprayed to leaf surface
  Growth rate (fresh weight of terrestrial part relative to Control group): 131%
[2]; Comparative group 1 (GSSG to soil) compared with Control group
  Plant growth promotion versus Control group: plant growth is promoted
[2]; GSSG applied to soil, 3.6 mg per pot in three applications, fertilizer elements to soil
  Weight (fresh weight, average, of the terrestrial parts): 90 mg
[2]; GSSG applied to soil, 3.6 mg per pot, fertilizer elements to soil
  Growth rate (fresh weight of terrestrial parts relative to Control group): 130%
[2]; sprayed to the leaf surface three times, 12 ml in total per pot (3.5-3.6 mg GSSG)
  Growth rate (fresh weight of terrestrial parts relative to Control group): 149%
[2]; sprayed to the leaf surface three times, 12 ml in total per pot (3.5-3.6 mg GSSG), remaining fertilizer elements to soil
  Weight (fresh weight, average, of the terrestrial parts): 103 mg

— US10662124B2, “Fertilizer composition containing oxidized glutathione and fertilizer element for foliar application” (Kaneka Corporation, priority 2015, dated 2020)
